{"source": "patent US20250295732A1", "about": "“COMPOSITIONS AND METHODS FOR ACTIVATING INNATE IMMUNITY” (Zoetis Services LLC, priority 2021, published 2025)", "assay_type_in_all_cases": "cell-based", "key": {"[1]": {"system": "bovine monocyte-derived macrophages", "assay": "LPS-induced cytokine response of CATH2-trained monocyte-derived macrophages (U-Plex MSD)", "settings": "CATH2 24 hr, removal, 3-day rest, LPS 1 μg/mL 24 hours; vs vehicle", "description": "(§1) Peripheral blood mononuclear cells (PBMC) were isolated from bovine blood using ficoll gradients. Bovine monocytes were isolated from PBMC using magnetic assisted cell sorting to positively select for CD14+ cells using anti-human CD14 microbeads (Miltenyi Biotec). Purified bovine blood CD14+ monocytes were differentiated into macrophages using an M2-skewing differentiation factor (recombinant bovine M-CSF) over 7 days then exposed to CATH2 or a vehicle control in the presence of bovine casein to mimic aspects of the mammary gland for 24 hr. […] Following the rest period, a subset of vehicle- and CATH2-trained monocyte-derived macrophages were assessed for epigenetic and transcriptomic changes. The remaining cells were challenged with LPS or E. coli bioparticle labeled with pH-sensitive pHrodo green dye and key parameters for macrophage activation/immune response were assessed including glycolytic activity, surface marker expression, gene expression, cytokine production, phagocytosis, reactive nitrogen species production, and miRNA profiling.\nCytokine levels in cell culture supernatant (IL-8/CXCL8, IL-6, TNFα, IL-1β, IL-10, IL-12p40) were quantified using customized U-Plex assays (MesoScale Diagnostics, LLC). […] Raw data were analyzed using MSD DISCOVERY BENCHWORK."}, "[2]": {"system": "bovine monocyte-derived macrophages", "assay": "ChIP-Seq for H3K27ac", "settings": "after CATH2 exposure and 3-day rest, pre-LPS; vs vehicle", "description": "Peripheral blood mononuclear cells (PBMC) were isolated from bovine blood using ficoll gradients. Bovine monocytes were isolated from PBMC using magnetic assisted cell sorting to positively select for CD14+ cells using anti-human CD14 microbeads (Miltenyi Biotec). Purified bovine blood CD14+ monocytes were differentiated into macrophages using an M2-skewing differentiation factor (recombinant bovine M-CSF) over 7 days then exposed to CATH2 or a vehicle control in the presence of bovine casein to mimic aspects of the mammary gland for 24 hr. Following treatment, vehicle and drug were removed and cells were washed to eliminate residual drug and monocyte-derived macrophages were rested for 3 days in order to assess reprogramming. Following the rest period, a subset of vehicle- and CATH2-trained monocyte-derived macrophages were assessed for epigenetic and transcriptomic changes. The remaining cells were challenged with LPS or E. coli bioparticle labeled with pH-sensitive pHrodo green dye and key parameters for macrophage activation/immune response were assessed including glycolytic activity, surface marker expression, gene expression, cytokine production, phagocytosis, reactive nitrogen species production, and miRNA profiling. […]"}, "[3]": {"system": "bovine monocyte-derived macrophages", "assay": "Flow cytometric surface marker expression after LPS", "settings": "24 hr following LPS after CATH2 removal and 3-day rest; vs vehicle", "description": "as §1\nExpression of surface markers on bovine monocyte-derived macrophages and cells isolated from bovine milk were assessed using flow cytometry. […] Following incubation with live/dead stain and antibodies, labeled cells were washed, and then analyzed on a ZE5 CellAnalyzer (BioRad) for monocyte-derived macrophages and a FACS Canto II (BD) for milk cells. […]"}, "[4]": {"system": "bovine monocyte-derived macrophages", "assay": "mRNASeq transcriptome analysis", "settings": "for Number of significantly differentially expressed genes, P < 0.01 & |log2FC| > 1 / Number of significantly differentially expressed genes, P < 0.05 & |log2FC| > 1 / Number of significantly differentially expressed genes, Padj < 0.05 & |log2FC| > 0.585 / Number of significantly differentially expressed genes, Padj < 0.05 & |log2FC| > 1 / Number of significantly differentially expressed genes, Padj < 0.1 & |log2FC| > 1: CATH2_vs_vehicle", "description": "Peripheral blood mononuclear cells (PBMC) were isolated from bovine blood using ficoll gradients. Bovine monocytes were isolated from PBMC using magnetic assisted cell sorting to positively select for CD14+ cells using anti-human CD14 microbeads (Miltenyi Biotec). Purified bovine blood CD14+ monocytes were differentiated into macrophages using an M2-skewing differentiation factor (recombinant bovine M-CSF) over 7 days then exposed to CATH2 or a vehicle control in the presence of bovine casein to mimic aspects of the mammary gland for 24 hr. Following treatment, vehicle and drug were removed and cells were washed to eliminate residual drug and monocyte-derived macrophages were rested for 3 days in order to assess reprogramming. Following the rest period, a subset of vehicle- and CATH2-trained monocyte-derived macrophages were assessed for epigenetic and transcriptomic changes. The remaining cells were challenged with LPS or E. coli bioparticle labeled with pH-sensitive pHrodo green dye and key parameters for macrophage activation/immune response were assessed including glycolytic activity, surface marker expression, gene expression, cytokine production, phagocytosis, reactive nitrogen species production, and miRNA profiling.\nBovine monocyte-derived macrophages were lysed in Buffer RLT with addition of (3-mercaptoethanol (QIAGEN) and stored at −80° C. until miRNA/mRNA isolations could be performed. Total RNA including miRNA was isolated from cell lysates using the miRNeasy Tissues/Cells Advanced kit (QIAGEN) following the manufacturer's instructions. mRNA and miRNA libraries were prepared using the TruSeq Stranded mRNA Library Prep Kit (Illumina) and QIAseq miRNA Library Kit, respectively (QIAGEN) according to the manufacturer's instructions. Libraries were run on the Illumina NextSeq550 System. Sequencing data were analyzed using CLC Genomics Workbench software and QIAGEN Ingenuity Pathway Analysis (IPA)."}, "[5]": {"settings": "0 hrs_post_CATH2 (prior to CATH2 treatment)"}, "[6]": {"settings": "0 hrs_post_LPS (after CATH2 and 3-day rest)"}}}
{"sequence": "RFGRFLRKIRRFRPKVTITIQGSARFG [CATH2, cathelicidin 2 peptide]", "values": [{"measurement": "LPS-induced cytokine production (IL-12p40, IL-6, TNFα, IL-8, IL-1β, IL-10)", "setting": "[1]", "result": "enhanced production of both pro- and anti-inflammatory cytokines/chemokines"}, {"measurement": "ChIP-Seq peaks with H3K27ac mark", "setting": "[2]", "result": "increased number of peaks with H3K27ac mark"}, {"measurement": "Surface marker expression (CD14, CD80, MHC II, CD163)", "setting": "[3]", "result": "enhanced expression of multiple surface markers"}, {"measurement": "CD14 and CD80 gene expression (RNA sequence data)", "setting": "[4]; 8 hr following LPS stimulation, CATH2 vs vehicle", "result": "significantly upregulated"}, {"measurement": "Number of significantly differentially expressed genes, P < 0.01 & |log2FC| > 1", "setting": "[4]; [5]", "result": 0}, {"measurement": "Number of significantly differentially expressed genes, P < 0.05 & |log2FC| > 1", "setting": "[4]; [5]", "result": 0}, {"measurement": "Number of significantly differentially expressed genes, Padj < 0.05 & |log2FC| > 0.585", "setting": "[4]; [5]", "result": 0}, {"measurement": "Number of significantly differentially expressed genes, Padj < 0.05 & |log2FC| > 1", "setting": "[4]; [5]", "result": 0}, {"measurement": "Number of significantly differentially expressed genes, Padj < 0.1 & |log2FC| > 1", "setting": "[4]; [5]", "result": 0}, {"measurement": "Number of significantly differentially expressed genes, P < 0.01 & |log2FC| > 1", "setting": "[4]; [6]", "result": 169}, {"measurement": "Number of significantly differentially expressed genes, P < 0.05 & |log2FC| > 1", "setting": "[4]; [6]", "result": 244}, {"measurement": "Number of significantly differentially expressed genes, Padj < 0.05 & |log2FC| > 0.585", "setting": "[4]; [6]", "result": 171}, {"measurement": "Number of significantly differentially expressed genes, Padj < 0.05 & |log2FC| > 1", "setting": "[4]; [6]", "result": 96}, {"measurement": "Number of significantly differentially expressed genes, Padj < 0.1 & |log2FC| > 1", "setting": "[4]; [6]", "result": 134}, {"measurement": "Number of significantly differentially expressed genes, P < 0.01 & |log2FC| > 1", "setting": "[4]; 8 hrs_post_CATH2", "result": 6}, {"measurement": "Number of significantly differentially expressed genes, P < 0.05 & |log2FC| > 1", "setting": "[4]; 8 hrs_post_CATH2", "result": 27}, {"measurement": "Number of significantly differentially expressed genes, Padj < 0.05 & |log2FC| > 0.585", "setting": "[4]; 8 hrs_post_CATH2", "result": 0}, {"measurement": "Number of significantly differentially expressed genes, Padj < 0.05 & |log2FC| > 1", "setting": "[4]; 8 hrs_post_CATH2", "result": 0}, {"measurement": "Number of significantly differentially expressed genes, Padj < 0.1 & |log2FC| > 1", "setting": "[4]; 8 hrs_post_CATH2", "result": 0}, {"measurement": "Number of significantly differentially expressed genes, P < 0.01 & |log2FC| > 1", "setting": "[4]; 8 hrs_post_LPS", "result": 509}, {"measurement": "Number of significantly differentially expressed genes, P < 0.05 & |log2FC| > 1", "setting": "[4]; 8 hrs_post_LPS", "result": 593}, {"measurement": "Number of significantly differentially expressed genes, Padj < 0.05 & |log2FC| > 0.585", "setting": "[4]; 8 hrs_post_LPS", "result": 962}, {"measurement": "Number of significantly differentially expressed genes, Padj < 0.05 & |log2FC| > 1", "setting": "[4]; 8 hrs_post_LPS", "result": 479}, {"measurement": "Number of significantly differentially expressed genes, Padj < 0.1 & |log2FC| > 1", "setting": "[4]; 8 hrs_post_LPS", "result": 532}, {"measurement": "Number of significantly differentially expressed genes, P < 0.01 & |log2FC| > 1", "setting": "[4]; 24 hrs_post_CATH2", "result": 11}, {"measurement": "Number of significantly differentially expressed genes, P < 0.05 & |log2FC| > 1", "setting": "[4]; 24 hrs_post_CATH2", "result": 28}, {"measurement": "Number of significantly differentially expressed genes, Padj < 0.05 & |log2FC| > 0.585", "setting": "[4]; 24 hrs_post_CATH2", "result": 0}, {"measurement": "Number of significantly differentially expressed genes, Padj < 0.05 & |log2FC| > 1", "setting": "[4]; 24 hrs_post_CATH2", "result": 0}, {"measurement": "Number of significantly differentially expressed genes, Padj < 0.1 & |log2FC| > 1", "setting": "[4]; 24 hrs_post_CATH2", "result": 0}, {"measurement": "Number of significantly differentially expressed genes, P < 0.01 & |log2FC| > 1", "setting": "[4]; 24 hrs_post_LPS", "result": 328}, {"measurement": "Number of significantly differentially expressed genes, P < 0.05 & |log2FC| > 1", "setting": "[4]; 24 hrs_post_LPS", "result": 393}, {"measurement": "Number of significantly differentially expressed genes, Padj < 0.05 & |log2FC| > 0.585", "setting": "[4]; 24 hrs_post_LPS", "result": 520}, {"measurement": "Number of significantly differentially expressed genes, Padj < 0.05 & |log2FC| > 1", "setting": "[4]; 24 hrs_post_LPS", "result": 279}, {"measurement": "Number of significantly differentially expressed genes, Padj < 0.1 & |log2FC| > 1", "setting": "[4]; 24 hrs_post_LPS", "result": 330}, {"measurement": "DEG related to Rho family signaling", "setting": "[4]; CATH2 vs vehicle", "result": "downregulated"}, {"measurement": "Type I interferon induced genes (e.g. ISG15, MX2, OAS2)", "setting": "[4]; CATH2 vs vehicle", "result": "significantly upregulated"}, {"measurement": "Immune response gene expression (IL1A/B, IL6, IL8, IL12, IL23, CCL2, NOS2, IL10)", "setting": "[4]; pre- and post-LPS after CATH2 treatment and 3-day rest, vs vehicle", "result": "significantly upregulated"}]}
